Experimental data: US9884063B2, “Amido-substituted azole compounds” (Bayer Pharma Aktiengesellschaft, priority 2014, dated 2018)

Target: T1, TNKS1 (Homo sapiens, UniProt O95271)
T1 sequence (O95271 1-1327): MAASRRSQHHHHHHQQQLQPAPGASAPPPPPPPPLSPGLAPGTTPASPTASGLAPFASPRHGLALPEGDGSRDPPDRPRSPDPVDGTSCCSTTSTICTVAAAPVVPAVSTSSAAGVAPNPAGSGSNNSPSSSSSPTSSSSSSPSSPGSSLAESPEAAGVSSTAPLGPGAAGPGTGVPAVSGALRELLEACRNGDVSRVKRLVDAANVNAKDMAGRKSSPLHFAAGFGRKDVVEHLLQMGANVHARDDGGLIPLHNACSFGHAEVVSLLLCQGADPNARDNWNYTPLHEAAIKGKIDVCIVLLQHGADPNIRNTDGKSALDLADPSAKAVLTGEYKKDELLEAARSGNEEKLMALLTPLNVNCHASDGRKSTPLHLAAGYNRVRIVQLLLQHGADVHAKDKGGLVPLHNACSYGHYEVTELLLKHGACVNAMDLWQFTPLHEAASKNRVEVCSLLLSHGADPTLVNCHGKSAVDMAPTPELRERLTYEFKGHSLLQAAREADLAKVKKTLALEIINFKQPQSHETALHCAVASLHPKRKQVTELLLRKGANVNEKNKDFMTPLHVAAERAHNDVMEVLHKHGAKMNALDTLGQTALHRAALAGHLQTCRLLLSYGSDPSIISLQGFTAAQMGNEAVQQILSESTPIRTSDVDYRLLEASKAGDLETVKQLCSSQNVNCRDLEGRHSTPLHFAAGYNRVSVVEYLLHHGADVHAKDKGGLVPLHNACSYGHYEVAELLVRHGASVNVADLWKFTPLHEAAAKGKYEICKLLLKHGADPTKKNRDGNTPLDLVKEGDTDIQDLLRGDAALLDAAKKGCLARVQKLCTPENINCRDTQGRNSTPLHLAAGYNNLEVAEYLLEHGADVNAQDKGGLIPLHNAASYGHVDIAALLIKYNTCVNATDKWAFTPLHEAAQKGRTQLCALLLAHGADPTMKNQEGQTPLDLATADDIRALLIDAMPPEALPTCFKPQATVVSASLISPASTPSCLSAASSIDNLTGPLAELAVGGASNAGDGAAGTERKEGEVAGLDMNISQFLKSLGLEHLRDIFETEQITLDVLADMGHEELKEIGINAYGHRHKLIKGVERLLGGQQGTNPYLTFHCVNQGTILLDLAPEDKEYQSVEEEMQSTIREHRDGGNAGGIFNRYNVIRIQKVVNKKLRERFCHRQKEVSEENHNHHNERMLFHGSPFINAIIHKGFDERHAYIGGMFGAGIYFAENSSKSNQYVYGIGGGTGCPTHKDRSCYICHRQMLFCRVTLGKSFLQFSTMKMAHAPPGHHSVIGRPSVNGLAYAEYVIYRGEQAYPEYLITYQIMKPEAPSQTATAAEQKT
Assay: Modified TNKS1 Assay 3 (BPS kit #80573, biotin-NAD+, 96 well)
Format: biochemical
Conditions: human TNKS1, BPS kit #80573, 96 well
Method in brief: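 Chemiluminescent assay of TNKS1-catalysed ribosylation of a protein substrate with biotin-labelled NAD+, detected via streptavidin-HRP; run per kit protocol. Inhibition lowers the signal, and IC50 is the compound concentration halving the normalised readout.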

- IC50: 40 nM
Compound: O=C(Nc1ccc(NC(=O)c2[nH]cnc2C(=O)NCCN2CCCCC2)cn1)c1ccc(F)cc1Cl [Example 110, N^5-{6-[(2-chloro-4-fluorobenzoyl)amino]pyridin-3-yl}-N^4-[2-(piperidin-1-yl)ethyl]-1H-imidazole-4,5-dicarboxamide]
